Laboratory results from patent US7402691B2, “Malononitrile compounds and their use as pesticides” (Sumitomo Chemical Company, Limited, priority 2001, dated 2008).
Where two headings read alike, the source gives them in different places.

How the values were obtained:
Format in all cases: in vivo
[1] = test system: Leptinotarsa decemlineata; test: Pesticidal test against Leptinotarsa decemlineata, eggplant leaf dip (Test Example 5); details: foliar, 120 h, eggplant leaf immersed 1 minute, second-instar larvae, 5th day after release, read-out: rate of dead or moribund pests
Method: A leaf of eggplant was immersed in the test liquid, which had been prepared as described above, for 1 minute. After the test liquid treated the leaf of eggplant was dried with a paper towel, the leaf of eggplant was placed in a polyethylene cup of 3 cm in diameter. One second-instar larvae of Leptinotarsa decemlineata (Colorado potato beetle) were set free in the polyethylene cup, which was then kept covered and left in a greenhouse at 25° C. This test was done ten times for one compound. On the 5th day after the release of Leptinotarsa decemlineata, the number of dead pests and moribund pests was examined.

Musca domestica = test: Pesticidal test against Musca domestica, filter paper with sucrose bait (Test Example 6)
Method: Ten female adults of Musca domestics (house fly) were set free in the polyethylene cup, which was then kept covered. After 24 hours, their survival was examined to determine the mortality.

Ctenocephalides felis = test: Pesticidal test against Ctenocephalides felis, treated filter paper (Test Example 9); details: 200 mg/m^2 on filter paper (acetone solution), twenty adults, after 24 hours
Method: Each of the compound 8, 15, 19, 21 and 34 was dissolved in acetone to give a 0.2 ml solution of 0.114% w/w, which was uniformly treated on a filter paper having 3.8cm in diameter, and air-dried. The amount of active ingredient was 200 mg/m^2. The filter paper was filled in a lid of a 200 ml glass bottle. Twenty adult Ctenocephalides felis (cat flea) were released in the glass bottle, which was followed by covering with the lid. The glass bottle was upset for making the fleas contact with the filter paper. After 24 hours, the mortality was examined.

Eysarcoris lewisi = test: Pesticidal test against Eysarcoris lewisi, treated peanut seeds (Test Example 4); details: 168 h, peanut seeds immersed 1 minute, adults, 7th day after release, read-out: rate of dead or moribund pests
Method: Then, 3 to 5 seeds of peanut were immersed in the test liquid, which had been prepared as described above, for 1 minute. After the test liquid treated the seeds of peanut was dried with a paper towel, a filter paper moistened with 1 ml of water was placed on a bottom of polyethylene cup and then the seeds of peanut was placed on it. Six to eight adults of Eysarcoris lewisi were set free in the polyethylene cup, which was then kept covered and left in a greenhouse at 25° C. On the 7th day after the release of Eysarcoris lewisi, the number of dead pests and moribund pests was examined.

[2] = 500 ppm, 0.7 ml on filter paper, ten female adults, after 24 hours, read-out: mortality

| SMILES | pest or weed control at 1.6 ppm [1] | mortality at 500 ppm (Musca domestica; [2]) | mortality at 200 mg/m2 (Ctenocephalides felis) | pest or weed control at 100 ppm (Eysarcoris lewisi) | mortality at 500 ppm (Musca domestica; 24 h) |
| --- | --- | --- | --- | --- | --- |
| N#CC(C#N)(Cc1ccc(OC(F)(F)F)cc1)CC(F)(F)C(F)(F)F [Compound 5, 2-(2,2,3,3,3-pentafluoropropyl)-2-(4-(trifluoromethoxy)benzyl)malononitrile] | > 80% | 100% | – | – | – |
| N#CC(C#N)(CCC(F)(F)C(F)(F)F)Cc1ccc(C(F)(F)F)cc1 [Compound 8, 2-(3,3,4,4,4-pentafluorobutyl)-2-(4-(trifluoromethyl)benzyl)malononitrile] | > 80% | 100% | 100% | 100% | – |
| N#CC(C#N)(CCC(F)(F)F)Cc1ccc(Br)cc1 [Compound 9, 2-(4-bromobenzyl)-2-(3,3,3-trifluoropropyl)malononitrile] | – | 100% | – | 100% | – |
| N#CC(C#N)(CCC(F)(F)C(F)(F)F)Cc1ccc(OC(F)(F)F)cc1 [Compound 10, 2-(3,3,4,4,4-pentafluorobutyl)-2-(4-(trifluoromethoxy)benzyl)malononitrile] | > 80% | 100% | – | 100% | – |
| N#CC(C#N)(CCC(F)F)Cc1ccc(C(F)(F)F)cc1 [Compound 11, 2-(3,3-difluoropropyl)-2-(4-(trifluoromethyl)benzyl)malononitrile] | – | 100% | – | 100% | – |
| N#CC(C#N)(CCCF)Cc1ccc(C(F)(F)F)cc1 [Compound 14, 2-(3-fluoropropyl)-2-(4-(trifluoromethyl)benzyl)malononitrile] | – | 100% | – | 100% | – |
| N#CC(C#N)(CCC(F)(F)F)Cc1ccc(Cl)cc1 [Compound 15, 2-(4-chlorobenzyl)-2-(3,3,3-trifluoropropyl)malononitrile] | > 80% | 100% | 100% | – | – |
| N#CC(C#N)(CCC(F)(F)F)Cc1ccc(F)c(F)c1 [Compound 19, 2-(3,4-difluorobenzyl)-2-(3,3,3-trifluoropropyl)malononitrile] | – | 100% | 100% | – | – |
| N#CC(C#N)(CCC(F)(F)F)Cc1ccc(Cl)c(Cl)c1 [Compound 21, 2-(3,4-dichlorobenzyl)-2-(3,3,3-trifluoropropyl)malononitrile] | > 80% | 100% | 100% | 100% | – |
| N#Cc1ccc(CC(C#N)(C#N)CCC(F)(F)F)cc1 [Compound 22, 2-(4-cyanobenzyl)-2-(3,3,3-trifluoropropyl)malononitrile] | – | 100% | – | 100% | – |
| N#CC(C#N)(CCC(F)(F)C(F)(F)F)Cc1ccc(Cl)cc1 [Compound 23, 2-(4-chlorobenzyl)-2-(3,3,4,4,4-pentafluorobutyl)malononitrile] | – | 100% | – | 100% | – |
| CSc1ccc(CC(C#N)(C#N)CCC(F)(F)F)cc1 [Compound 34, 2-(4-(methylthio)benzyl)-2-(3,3,3-trifluoropropyl)malononitrile] | – | 100% | 100% | – | – |
| N#CC(C#N)(CCC(F)(F)F)Cc1ccc(C(F)(F)F)c(Cl)c1 [Compound 39, 2-(3-chloro-4-(trifluoromethyl)benzyl)-2-(3,3,3-trifluoropropyl)malononitrile] | – | 100% | – | 100% | – |
| N#CC(C#N)(CCC(F)(F)F)Cc1ccc(OC(F)(F)F)cc1 [Compound 50, 2-(3,3,3-trifluoropropyl)-2-(4-(trifluoromethoxy)benzyl)malononitrile] | > 80% | 100% | – | 100% | – |
| N#CC(C#N)(Cc1ccc(C(F)(F)F)cc1)CC(F)(F)F [Compound 72, 2-(2,2,2-trifluoroethyl)-2-(4-(trifluoromethyl)benzyl)malononitrile] | – | 100% | – | – | – |
| N#CC(C#N)(CCC(F)=C(F)F)Cc1ccc(C(F)(F)F)cc1 [Compound 73, 2-(3,4,4-trifluoro-3-butenyl)-2-(4-(trifluoromethyl)benzyl)malononitrile] | – | 100% | – | – | – |
| N#CC(C#N)(CCC(F)(F)F)Cc1ccc(C(F)(F)F)cc1 [Compound 74, 2-(3,3,3-trifluoropropyl)-2-(4-(trifluoromethyl)benzyl)malononitrile] | > 80% | 100% | – | 100% | – |
| N#CC(C#N)(Cc1ccc(C(F)(F)F)cc1)CC(F)(F)C(F)(F)F [Compound 76, 2-(2,2,3,3,3-pentafluoropropyl)-2-(4-(trifluoromethyl)benzyl)malononitrile] | > 80% | 100% | – | 100% | – |
| N#CC(C#N)(Cc1ccc(C(F)(F)F)cc1)CC(F)(F)C(F)(F)C(F)(F)F [Compound 77, 2-(2,2,3,3,4,4,4-heptafluorobutyl)-2-(4-(trifluoromethyl)benzyl)malononitrile] | – | – | – | – | 100% |
| N#CC(C#N)(CCCC(F)(F)F)Cc1ccc(C(F)(F)F)cc1 [Compound 78, 2-(4,4,4-trifluorobutyl)-2-(4-(trifluoromethyl)benzyl)malononitrile] | > 80% | 100% | – | – | – |
| N#CC(C#N)(CCC(F)(F)F)Cc1cccc(F)c1 [Compound 79, 2-(3-fluorobenzyl)-2-(3,3,3-trifluoropropyl)malononitrile] | – | 100% | – | – | – |
| N#CC(C#N)(CCC(F)(F)F)Cc1cccc(OCc2ccccc2)c1 [Compound 88, 2-(3-(benzyloxy)benzyl)-2-(3,3,3-trifluoropropyl)malononitrile] | – | 100% | – | – | – |
| COc1ccc(CC(C#N)(C#N)CCC(F)(F)F)cc1 [Compound 89, 2-(4-methoxybenzyl)-2-(3,3,3-trifluoropropyl)malononitrile] | – | 100% | – | – | – |
